What is called CC50 is the concentration that lowers cell viability or growth by half. For orientation: IC50 means the concentration that gives 50% inhibition.

Where two headings read alike, the source gives them in different places.

This is an account of results in article PMC8583042, “New Hybrid Compounds Combining Fragments of Usnic Acid and Thioether Are Inhibitors of Human Enzymes TDP1, TDP2 and PARP1” (International Journal of Molecular Sciences, 2021).

A short description of series [1]: EZ4U colorimetric cytotoxicity test, HeLa. Type of series: cell-based, human. The conditions noted are these: human, HeLa cells; intrinsic cytotoxicity, compound alone, 3 days. The source says:
The low intrinsic cytotoxicity of the additional drug component in the clinically used anticancer cocktails with traditional drugs is very important for treatment. This approach in chemotherapy can reduce the potential resulting toxic load on the body in the case of a combined action of these inhibitors on the activity of several targets. […] The effects of the tested compounds on cell survival are shown on Figure 4 and the CC50 values for three cell lines are shown in Table 1. The intrinsic cytotoxicity of a number of the studied compounds is quite high, namely, they have close IC50 values against the TDP1 and CC50 values on one or several studied cell lines. Most of the compounds generally were more toxic for the HEK293FT and HeLa cell lines than for the HEK293A cell line (Table 1 and Figure 4). The cytotoxicity of the three leader compounds, 7g, 10a, and 7h, was quite high. […] Compound 10b was one of the least toxic among the ten tested compounds.
Cytotoxicity of the compounds was examined against human cell lines HEK293A (human embryonic kidney)—WT, TDP1 deficient (Tdp1-/-), PARP1 deficient (PARP1-/-), and HeLa (cervical cancer) using an EZ4U colorimetric test (Biomedica, Vienna, Austria). The HEK293A cell line was obtained from Thermo Fisher Scientific (Waltham, MA, USA), and the HeLa cell line was obtained from the Russian Cell Culture Collection (RCCC) Institute of Cytology RAS, St. Petersburg, Russia. The cells were grown in DMEM/F12 medium (Gibco, Thermo Fisher Scientific, Waltham, MA, USA), with 1x GlutaMAX (Gibco, Thermo Fisher Scientific, Waltham, MA, USA), 50 IU/mL penicillin, 50 μg/mL streptomycin (MP Biomedicals), and in the presence of 10% fetal bovine serum (Biolot, Saint-Petersburg, Russia) in a 5% CO2 atmosphere. Cells were grown in the presence of 1% DMSO in the control wells. After the formation of a 30–50% monolayer, the tested compounds were added to the medium, and the cell culture was monitored for 3 days. The values were normalized to their own control in each case. At least three independent experiments were carried out. The 50% cytotoxic concentration (CC50) was defined as the compound concentration that reduced the cell viability by 50% when compared to the untreated controls. The compound concentration that caused 50% cell growth inhibition was determined using OriginPro 8.6.0 software (OriginLab, Northampton, MA, USA). The measurements were carried out in three independent experiments.

In the next series the target is T1, TDP1 (Homo sapiens, UniProt Q9NUW8).
T1 construct: made in house; host or cells: E. coli
In words: Real-time fluorescence assay of TDP1 activity. Type of series: biochemical. The source says:
We tested UA and all 14 newly synthesized UA derivatives for their TDP1 inhibitory properties by measuring their IC50 values using a real-time fluorescent assay. […] Compounds 10a,b are sulfoxide analogs of 7g,h.
Human recombinant tyrosyl-DNA phosphodiesterase 1 (TDP1) and human recombinant poly(ADP-ribose)-polymerase1 (PARP1) were expressed in the E. coli system and purified as described.
The biosensor (5′-[FAM] AAC GTC AGGGTC TTC C [BHQ]-3′) was synthesized in the Laboratory of Nucleic Acid Chemistry at the Institute of Chemical Biology and Fundamental Medicine (Novosibirsk, Russia) and was used for TDP1 enzyme activity real-time fluorescence detection. The reaction mixture (200 μL) contained a TDP1 reaction buffer (50 mM Tris-HCl, pH 8.0, 50 mM NaCl, and 7 mM β-mercaptoethanol), 50 nM oligonucleotide, varied concentrations of the tested compounds, and purified TDP1 in a final concentration 1.5 nM. The reaction mixtures were incubated at a constant temperature of 26 °C in a POLARstar OPTIMA fluorimeter (BMG LABTECH, GmbH, Ortenberg, Germany). Fluorescence intensity was measured (Ex485/Em520 nm) every 1 min for 10 min. The average values of the half maximal inhibitory concentration (IC50) were determined using an eleven-point concentration response curve and calculated using MARS Data Analysis 2.0 (BMG LABTECH). The 50% inhibitory concentration (IC50) was defined as the concentration of the compound that inhibited 50% of the enzyme activity when compared to the untreated controls. At least three independent experiments were carried out to obtain the IC50 values. To determine the kinetic parameters of the TDP1 enzymatic reaction, the apparent maximum rate of enzymatic reaction (Vmax), Michaelis constant (KM), possible inhibition mechanism, and steady-state kinetic experiments were carried out at 5 fixed concentrations of the substrate, with variation in the inhibitor concentrations. The standard reaction mixtures (200 μL) contained reaction buffer components; 50 nM, 100 nM, 200 nM, 500 nM, or 1000 nM substrate; an inhibitor; and 1.5 nM recombinant human TDP1. The initial kinetic curves were obtained in three independent experiments and statistically processed in OriginPro 8.6.0 (OriginLab, Northampton, MA, USA).

T1 sequence (Q9NUW8 whole entry): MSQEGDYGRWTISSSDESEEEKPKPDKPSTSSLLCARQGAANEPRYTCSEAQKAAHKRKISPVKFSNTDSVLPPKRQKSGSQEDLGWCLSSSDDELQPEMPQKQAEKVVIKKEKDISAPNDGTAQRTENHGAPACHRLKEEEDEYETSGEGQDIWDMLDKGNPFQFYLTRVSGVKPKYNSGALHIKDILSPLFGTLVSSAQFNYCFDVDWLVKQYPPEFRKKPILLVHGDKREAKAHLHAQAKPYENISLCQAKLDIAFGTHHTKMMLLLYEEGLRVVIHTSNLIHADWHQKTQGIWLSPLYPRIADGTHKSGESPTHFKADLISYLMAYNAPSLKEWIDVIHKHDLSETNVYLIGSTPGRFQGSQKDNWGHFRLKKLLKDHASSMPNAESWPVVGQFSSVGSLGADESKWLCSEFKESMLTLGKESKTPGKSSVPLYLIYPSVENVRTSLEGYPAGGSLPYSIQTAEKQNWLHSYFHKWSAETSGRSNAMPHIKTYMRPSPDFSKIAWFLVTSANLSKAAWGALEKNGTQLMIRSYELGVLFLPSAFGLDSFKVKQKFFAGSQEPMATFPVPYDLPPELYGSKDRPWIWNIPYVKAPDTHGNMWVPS

`CC(=O)C1=C(O)C=C2Oc3c(C(=O)C[S+]([O-])c4nc5ccccc5s4)c(O)c(C)c(O)c3[C@@]2(C)C1=O` (stereo partly drawn) [10a, (2R)-4-acetyl-10-[2-(1,3-benzothiazole-2-sulfinyl)acetyl]-5,11,13-trihydroxy-2,12-dimethyl-8-oxatricyclo[7.4.0.0^2,7]trideca-1(13),4,6,9,11-pentaen-3-one] yielded a CC50 at 3 days in series [1] of 15 ± 1 µM. The IC50 at TDP1 (real-time fluorescent assay, 1.5 nM TDP1, 50 nM oligonucleotide, read-out: IC50 (TDP1)) came out at 2.1 ± 0.2 µM.

Regarding `CC(=O)c1c(O)c(C)c(O)c2c1OC1=CC(=O)C(C(C)=O)C(=O)C12C` (centres unmarked) [UA, usnic acid], in series [1], it took 20 ± 10 µM to reach half-maximal cytotoxicity (CC50 at 3 days). In addition, the IC50 at TDP1 is > 50 µM. Moreover, the “TDP1 inhibition (in words)” value on TDP1 (in the concentration range of the derivatives' IC50) was “does not inhibit TDP1”.
